Laboratory results reported in patent publication US9493468B2, “Antifungal 5,6-dihydro-4H-pyrrolo[1,2-a][1,4]benzo-diazepines and 6H-pyrrolo[1,2-a][1,4]benzodiazepines substituted with heterocyclic derivatives” (Janssen Pharmaceutica NV, priority 2011, dated 2016).

Tests used:
Format in all cases: cell-based
Microsporum canis = assay: Antifungal activity in vitro, resazurin growth inhibition: Microsporum canis (B68128)
Outline: (§1)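 Dermatophytes incubated at 27° C. for one week or more with compound, max 64 μM, in RPMI-1640/MOPS pH 7.0±0.1, 10^3 cfu/well. Viability by resazurin-to-resorufin fluorescence, 550/590 nm.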

Trichophyton rubrum = assay: Antifungal activity in vitro, resazurin growth inhibition: Trichophyton rubrum (B68183)
Outline: as §1

[1] = tested on: Trichophyton mentagrophytes; assay: Antifungal activity in vitro, resazurin growth inhibition: Trichophyton mentagrophytes (B70554)
Outline: as §1

Cryptococcus neoformans = assay: Antifungal activity in vitro, resazurin growth inhibition: Cryptococcus neoformans (B66663)
Outline: (§2)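 Fungi (10^3 cfu/well) grown in RPMI-1640 with L-glutamine, 2% glucose, MOPS pH 7.0, against 2- or 4-fold compound dilutions up to 64 μM. Dermatophytes incubated one week or more at 27° C. Growth inhibition read fluorimetrically (λex 550, λem 590 nm) after resazurin addition and further incubation.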

Sporothrix schenkii = assay: Antifungal activity in vitro, resazurin growth inhibition: Sporothrix schenkii (B62482)
Outline: as §2

Candida parapsilosis = assay: Antifungal activity in vitro, resazurin growth inhibition: Candida parapsilosis (B66126)
Outline: as §2

Aspergillus fumigatus = assay: Antifungal activity in vitro, resazurin growth inhibition: Aspergillus fumigatus (B42928)
Outline: as §2

| Inf. B: Microsporum canis B68128, pIC50 (Microsporum canis) | Inf. C: Trichophyton rubrum B68183, pIC50 (Trichophyton rubrum) | Inf. G: Trichophyton mentagrophytes B70554, pIC50 [1] | Inf. F: Cryptococcus neoformans B66663, pIC50 (Cryptococcus neoformans) | Inf. A: Sporothrix schenkii B62482, pIC50 (Sporothrix schenkii) | Inf. D: Candida parapsilosis B66126, pIC50 (Candida parapsilosis) | Inf. E: Aspergillus fumigatus B42928, pIC50 (Aspergillus fumigatus) | SMILES |
| --- | --- | --- | --- | --- | --- | --- | --- |
| 5.29 | 6.05 | 5.52 | 5.06 | <4.19 | <4.19 | 5.02 | Fc1cccc2c1CN=C(c1ccc3scnc3c1)c1cccn1-2 [Compound 189] |
| 5.52 | 6.70 | 5.87 | 4.91 | <4.49 | 4.58 | 4.94 | c1ccc2c(c1)CN=C(c1ccc3ncsc3c1)c1cccn1-2 [Compound 182] |
| 5.79 | 6.18 | 5.51 | 5.26 | 4.90 | 5.09 | 5.05 | Cn1ccc2cc(C3=NCc4c(Cl)cccc4-n4cccc43)ccc21 [Compound 106] |
| 4.40 | 6.03 | 4.39 | <4.19 | <4.19 | <4.19 | <4.19 | Clc1cccc2c1CN=C(c1nc3ccccc3s1)c1cccn1-2 [Compound 180] |
| <4.19 | <4.19 | <4.19 | <4.19 | <4.19 | <4.19 | <4.19 | FC(F)(F)c1nc2cc(C3=NCc4c(Cl)cccc4-n4cccc43)ccc2s1 [Compound 193] |
| <4.19 | 4.49 | <4.19 | <4.19 | <4.19 | <4.19 | <4.19 | Cc1cccc2c1CN=C(c1cnc(C(F)(F)F)nc1)c1cccn1-2 [Compound 103] |
| 5.69 | 5.94 | 4.98 | <4.19 | <4.19 | <4.19 | <4.19 | Cl.Clc1cccc2c1CN=C(c1nc3ccccc3s1)c1cccn1-2 [Compound 181] |
| <4.19 | 5.86 | <4.19 | <4.19 | <4.19 | <4.19 | <4.19 | Cc1ccc2cc(C3=NCc4c(F)cccc4-n4cccc43)ccc2n1 [Compound 113] |
| 5.61 | 6.05 | <4.49 | <4.49 | <4.49 | <4.49 | <4.49 | CCc1ccc(C2=NCc3c(Cl)cccc3-n3cccc32)nc1 [Compound 72] |

Second part, the molecule before the results:

| SMILES | Inf. B: Microsporum canis B68128, pIC50 (Microsporum canis) | Inf. C: Trichophyton rubrum B68183, pIC50 (Trichophyton rubrum) | Inf. G: Trichophyton mentagrophytes B70554, pIC50 [1] | Inf. F: Cryptococcus neoformans B66663, pIC50 (Cryptococcus neoformans) | Inf. A: Sporothrix schenkii B62482, pIC50 (Sporothrix schenkii) | Inf. D: Candida parapsilosis B66126, pIC50 (Candida parapsilosis) | Inf. E: Aspergillus fumigatus B42928, pIC50 (Aspergillus fumigatus) |
| --- | --- | --- | --- | --- | --- | --- | --- |
| COc1cccc2cc(C3=NCc4ccccc4-n4cccc43)oc12 [Compound 157] | 5.79 | 6.58 | 5.96 | <4.49 | <4.49 | 4.61 | <4.49 |
| Cl.FC(F)(F)c1ccc(C2NCc3c(Cl)cc(Cl)cc3-n3cccc32)cn1 (racemic) [Compound 19] | 4.95 | 5.65 | 4.57 | 5.02 | <4.19 | <4.19 | <4.19 |
| CCn1cc(C2=NCc3c(Cl)cccc3-n3cccc32)cn1 [Compound 60] | 5.18 | 5.70 | 4.47 | <4.19 | <4.19 | <4.19 | 4.30 |
| Cc1nc2ccc(C3NCc4c(Cl)cccc4-n4cccc43)cc2o1.Cl (racemic) [Compound 50] | 4.56 | 4.49 | <4.19 | <4.19 | <4.19 | <4.19 | <4.19 |
| Clc1cccc2c1CNC(c1ccccn1)c1cccn1-2 (racemic) [Compound 11] | 4.73 | 4.71 | 4.72 | 4.93 | 4.49 | <4.19 | 4.31 |
| COc1ccc2oc(C3NCc4ccc(Cl)cc4-n4cccc43)cc2c1.Cl (racemic) [Compound 45] | 5.32 | 5.09 | <4.19 | 4.62 | 4.80 | <4.19 | <4.19 |
| Cc1cccc2oc(C3NCc4ccc(Cl)cc4-n4cccc43)cc12.Cl (racemic) [Compound 37] | 4.38 | 5.31 | 4.41 | 5.39 | <4.19 | <4.19 | <4.19 |
| CCc1cnc(C2=NCc3c(Cl)cc(Cl)cc3-n3cccc32)s1 [Compound 67] | 4.50 | 4.71 | <4.19 | <4.19 | <4.19 | <4.19 | <4.19 |
| CCc1csc(C2=NCc3c(Cl)cccc3-n3cccc32)n1 [Compound 68] | 4.91 | 5.58 | 4.80 | 4.38 | <4.19 | <4.19 | <4.19 |
| Cl.Clc1cccc2c1CNC(c1cc3ccccc3s1)c1cccn1-2 (racemic) [Compound 53] | 5.70 | 6.10 | 5.70 | 5.70 | 4.92 | <4.19 | 5.40 |
| Cc1cccc2c1-n1cccc1C(c1cc3ccccc3o1)NC2.Cl (racemic) [Compound 33] | 5.22 | 4.49 | 4.98 | 4.38 | <4.19 | <4.19 | <4.19 |
| CCn1cc(C2=NCc3c(Cl)ccc(Cl)c3-n3cccc32)cn1 [Compound 61] | 4.66 | 4.52 | 4.39 | 4.44 | <4.19 | <4.19 | <4.19 |
| Cc1ccc(Cl)c2c1-n1cccc1C(c1cc3ccccc3s1)=NC2 [Compound 169] | 5.00 | 6.01 | <4.19 | <4.19 | <4.19 | <4.19 | <4.19 |
| Cc1ccc2cc(C3NCc4c(C)cccc4-n4cccc43)oc2c1.Cl (racemic) [Compound 40] | 5.52 | 4.77 | 4.47 | <4.19 | <4.19 | <4.19 | <4.19 |
| Cl.Clc1cc(Cl)c2c(c1)-n1cccc1C(c1cc3ccccc3o1)NC2 (racemic) [Compound 31] | 5.59 | 5.31 | 4.87 | <4.19 | <4.19 | <4.19 | <4.19 |
